What was measured:
[1] = Partition coefficient of compound in to octanol/buffer; type: physicochemical; settings: octanol/water
[2] = sarcoplasmic reticulum membrane
Description: Partition coefficient of compound in to biological membranes

[3] = species: Rattus norvegicus; assay: Equilibrium dissociation constant based on membrane concentration in rat smooth muscle; type: ADME, Muscle tissue
[4] = species: Rattus norvegicus; assay: Equilibrium dissociation constant based on aqueous concentration in rat smooth muscle; type: ADME, Muscle tissue
[5] = species: Rattus norvegicus; assay: Equilibrium dissociation constant based on membrane concentration in rat cardiac muscle

Partition coefficient [1]	Partition coefficient [2]	Kd [5] [nM]	Structure (SMILES)	Kd [3] [nM]	Kd [4] [nM]
18	1200		CC(C)NCC(O)COc1cccc2ccccc12 (stereo not drawn) [PROPRANOLOL]		
730	6300		COCCOC(=O)C1=C(C)NC(C)=C(C(=O)OC(C)C)C1c1cccc([N+](=O)[O-])c1 (stereo not drawn) [NIMODIPINE]	690	0.11
			COC(=O)C1=C(C)NC(C)=C(C(=O)OC)C1c1ccccc1[N+](=O)[O-] [NIFEDIPINE]	23000	0.41
0.7			CC(C)(C)NC[C@H](O)COc1nsnc1N1CCOCC1 [TIMOLOL]		
40	13000	1800	COC(=O)C1=C(C)NC(C)=C(C(=O)OCC(C)C)C1c1ccccc1[N+](=O)[O-] (stereo not drawn) [NISOLDIPINE]		0.14

Structure (SMILES)	Partition coefficient [1]	Partition coefficient [2]	Kd [5] [nM]	Kd [3] [nM]	Kd [4] [nM]
CN/C(=N/CCSCc1nc[nH]c1C)NC#N [CIMETIDINE]	1				
CCOC(=O)C1=C(COCCN)NC(C)=C(C(=O)OC)C1c1ccccc1Cl (stereo not drawn) [AMLODIPINE]	30	19000		23000	1.2

Source: ChEMBL document CHEMBL1125846, “Reevaluating equilibrium and kinetic binding parameters for lipophilic drugs based on a structural model for drug interaction with biological membranes” (J Med Chem, 1991)
